{
  "source": "patent US11826431B2",
  "about": "“Polypeptide-based ocular absorption enhancer and application thereof” (Fudan University, priority 2017, dated 2023)",
  "key": {"[1]": {"experiment": "In vitro tissue permeability, isolated sclera (diffusion cells)", "type": "in vitro ADME, rabbit", "method": "(§1) Evaluation of in vitro tissue permeability of the covalently linked complex of Penetratin derivatives and small molecular substances: the experimental rabbits were anesthetized with pentobarbital sodium (30 mg/kg), which is injected via ear vein, and sacrificed by injection with excessive chloral hydrate (150 mg/kg). After separation of the conjunctiva, carefully removed the entire eyeball, make a circumcision at about 2 mm from the limbus of cornea and remove the cornea, and removed the iris and other tissues to obtain an experimental cornea. The rest of the eyeballs were removed from the retina and other tissues to obtain an experimental sclera. Both the cornea and sclera were carefully washed with Ringer's solution 3 times before use. The experiment was started within 30 min after the animals were sacrificed. The freshly isolated cornea and sclera were carefully sandwiched between two diffusion cells, with the epithelial surface facing a diffusion cell (supply cell) on the left, the diffusion window diameter was 10.25 mm, and the diffusion area was 0.825 cm^2. 3.5 mL of Ringer's solutions were added to the supply cell and a receiving cell on the right, respectively. Circulating water was passed therein, and the water temperature was kept at 34° C.±0.5° C. […] Immediately after the experiment, the fluorescence intensity of the sample was measured. […]"}, "[2]": {"experiment": "In vitro tissue permeability, isolated cornea (diffusion cells)", "type": "in vitro ADME, rabbit", "method": "as §1"}, "[3]": {"experiment": "Intraocular distribution of penetratin derivative-FAM complexes after conjunctival sac administration", "type": "in vivo, mice", "method": "Evaluation of intraocular distribution of the covalently linked complex of Penetratin derivatives and small molecules: 5 μL of a solution of complex of penetratin derivative and FAM (concentration 30 μM) was dripped into the conjunctival sac of male mice, and the eyelids were gently closed to distribute the solution evenly. The solution was administered every 10 minutes for a total of 3 times, and taking the time of the last administration as zero time. At a preset time point, mice were killed by intraperitoneal injection of excessive chloral hydrate, and the eyeballs of the mice were removed, fixed with Davidson's solution for 0.5 h, and embedded. Frozen longitudinal sections of eyeballs were prepared and the nuclei were stained with DAPI, and the distribution of polypeptides in the eye parts was observed under an inverted fluorescence microscope."}, "[4]": {"conditions": "7.5 μM complex with FAM, 34° C."}, "[5]": {"conditions": "DAPI stained frozen sections after permeability experiment"}, "[6]": {"conditions": "10 min after conjunctival sac administration (FIG. 6B)"}},
  "note": "Where a SMILES comes first, the peptide text is derived from it. The star is where a group is joined. 5FAM = O=C1OC2(c3ccc(O)cc3Oc3cc(O)ccc32)c2ccc(C(=O)*)cc21",
  "data": [
    {"smiles": "C[C@H](NC(=O)[C@H](C)NC(=O)[C@H](CCCCN)NC(=O)[C@H](C)NC(=O)[C@H](CCC(N)=O)NC(=O)[C@@H](N)CCCNC(=N)N)C(=O)N[C@@H](C)C(=O)N[C@@H](CCC(N)=O)C(=O)N[C@@H](CC(N)=O)C(=O)N[C@@H](CCCNC(=N)N)C(=O)N[C@@H](CCCNC(=N)N)C(=O)N[C@@H](C)C(=O)N[C@@H](CCCCN)C(=O)N[C@@H](C)C(=O)N[C@@H](CCCCN)C(=O)N[C@@H](CCCCN)C(=O)N[C@@H](CCCCNC(=O)c1ccc2c(c1)C(=O)OC21c2ccc(O)cc2Oc2cc(O)ccc21)C(=O)O", "note": "[6A, RQAKAAAQNRRAKAKKK-FAM] (H-RQAKAAAQNRRAKAKKK(5FAM)-OH)", "values": [
      {"measurement": "Papp value relative to wild-type penetratin, isolated sclera", "setting": "[1]; [4]", "value": "⅔"},
      {"measurement": "fluorescence signal in isolated sclera sections compared with wild-type penetratin group", "setting": "[1]; [5]", "value": "significantly weaker"},
      {"measurement": "Papp value relative to wild-type penetratin, isolated cornea", "setting": "[2]; [4]", "value": "⅕"},
      {"measurement": "fluorescence in isolated cornea sections compared with wild-type penetratin group", "setting": "[2]; [5]", "value": "no obvious fluorescence signal"},
      {"measurement": "distribution in the cornea", "setting": "[3]; [6]", "value": "significantly less distributed"},
      {"measurement": "distribution in the retina", "setting": "[3]; [6]", "value": "less distributed"},
      {"measurement": "FAM fluorescence signal in anterior and posterior segment of the eye compared with wild-type penetratin", "setting": "[3]; 10 minutes after eye drops, 30 μM, 5 μL x 3", "value": "weakened"},
      {"measurement": "amount entering the eye (cornea and retina) compared with wild-type penetratin", "setting": "[3]; semi-quantitative analysis (FIG. 6C)", "value": "significantly less"}
    ]}
  ]
}
